The values that follow are results of earlier work, collected in publication PMC11317963 (Neural Regeneration Research, 2024).

Data set [1] deals with permanent middle cerebral artery occlusion model. The following applies: compared with VEGF; ref Pignataro et al., 2015.
The conditions of data set [2]: ref Diana et al., 2008; Finetti et al., 2012.
The conditions of data set [3]: ref Zhang et al., 2000.

With KLTWQELYQLKYKGI [QK], the vessel permeability entry in data set [1] is recorded as “decrease vessel permeability compared with VEGF”. The thermal stability entry in data set [2] was “relatively high thermal stability”.

VEGF: the half-life in vivo entry in data set [3] was “relatively short”.
